From US12011459B2, “Methods for manufacturing T cells by direct sorting and compositions thereof” (Immatics US, Inc., priority 2019, dated 2024)
Several values for one entry are separate records, joined by “and”; a condition that tells them apart may be missing. Equal entries are not always repeated.

Columns and labels:
PBMC = assay: Col6A3-002 2D tetramer staining of PBMC with dasatinib treatment, flow cytometry; type: cell-based, human; details: for 2D PE/BV421 Tet-positive and irrelevant peptide APC tetramer-negative events: 4° C.
Experimental: To compare the effects of PKI and temperatures on pMHC multimer staining, healthy donor peripheral blood mononuclear cells (PBMCs) were pretreated with 50 nM Dasatinib (FIG. 21A) or untreated (FIG. 21B) and then stained with two Col6A3-002 peptide (FLLDGSANV (SEQ ID NO: 141)) (Col) tetramers (2Dtet) conjugated to streptavidin BV421 and PE, and five different irrelevant APC tetramers (peptide 1, peptide 2, peptide 3, peptide 4, and peptide 5) at either 37° C. (FIG. 21A) or room-temperature (RT) (FIG. 21B) for 30 minutes. Following tetramer staining, samples were counterstained with tetramer stabilizing antibodies staining against PE and APC at 4° C., followed by staining with anti-CD45 PE-Cy7 antibody at 4° C.
To determine which staining conditions that may provide lowest background and lowest false positive rate, PBMC were stained with or without PKI treatment, e.g., dasatinib (DAS), with or without irrelevant peptide tetramer mix at different tetramer staining temperatures (Hadrup et al., Nat. Methods, 2009, 6:520-526; the content of which is hereby incorporated by reference in its entirety). For example, PBMC cells were stained with 2D Tet (PE+BV421) in the presence or in the absence of irrelevant peptide tetramer mix, e.g., five different irrelevant peptides (e.g., Col6A3-015 (YLMDDFSSL (SEQ ID NO: 16)), MAG-003 (KVLEHVVRV (SEQ ID NO: 118)), MAGEC2-001 (TLDEKVAEL (SEQ ID NO: 161)), MXRA5-003 (LLWGHPRVALA (SEQ ID NO: 18), and MAGEA1-003 (KVLEYVIKV (SEQ ID NO: 105)) APC tetramers±DAS treatment, at 37° C. or at room temperature (RT). DAS treatments were performed at 37° C.
To investigate PBMC staining under conditions D and G, PBMC (12.5×10^6 cells/ml) obtained from 4 donors were stained±DAS treatment (50 nM, at 37° C.), Col6A3-002 BV421 tetramer (3 μg/ml) and Col6A3-002 PE Tetramer (2.5 μg/ml), fluorochrome-labeled anti-CD45 antibody, e.g., PE-Cy7 mouse anti-human CD45 (BD Biosciences), Col6A3-002 BV421 tetramer (3 μg/ml), and APC irrelevant peptides (n=5, e.g., Col6A3-015 (YLMDDFSSL (SEQ ID NO: 16)), MAG-003 (KVLEHWRV (SEQ ID NO: 118)), MAGEC2-001 (TLDEKVAEL (SEQ ID NO: 161)), MXRA5-003 (LLWGHPRVALA (SEQ ID NO: 18), and MAGEA1-003 (KVLEYVIKV (SEQ ID NO: 105)) tetramer mix (3 μg/ml) with all staining, spins, and washes at 4° C.
The experiments shown in FIGS. 37A-37D were repeated using a different fluorochrome-labeled anti-CD45 antibody, e.g., PE-Cy™7 mouse anti-human CD45 (BD Biosciences). PBMC (10×10^6 cells/nil) obtained from 4 donors were stained with or without DAS treatment (50 nM, at 37° C.), BV421 (3 μg/ml), Col6A3-002 2D Tet (PE+BV421) (2.5 μg/ml), PerCP-Cy™5.5 mouse anti-human CD45 (BD Biosciences), Col6A3-002 BV421 tetramer (3 μg/ml), and APC (n=5) irrelevant tetramer mix (3 μg/ml) with all staining, spins, and washes at 4° C.

[1] = tested on: Col6A3 REP1 cells (αCol6A3 T cells); assay: Col6A3-002 2D tetramer staining of Col6A3 REP1 cells with dasatinib treatment, flow cytometry; type: cell-based; details: for background staining of BV421/APC double-positive irrelevant peptide T cells (Q2): bench and centrifugation at 4° C.
Experimental: To determine which staining conditions that may provide higher staining index (SI), indicating better separation of cells stained positive from cells stained negative, and lower false negative rate, Col6A3 REP1 cells, which were prepared by rapid expansion protocol (REP), were stained±DAS treatment (at 37° C.), ±irrelevant peptide tetramer mix, and staining at RT or 37° C.
Staining index (SI) may be calculated by using formula (I): SI=(mean PE+mean BV421 2Dtet+)−(mean PE+mean BV421 2Dtet−)/2×(SD PE+SD BV421 2Dtet−). […] (P=0.316695), and ±irrelevant peptide tetramer mix (P=0.597223).
The estimation per 1×10^6 based on flow %, which indicates numbers of peptide-specific T cells per 1×10^6 of CD45+ cells, may be calculated by the formula: (2Dtet+%×1×10^6/100)−((2Dtet+%×1×10^6/100)×irrelevant peptide tetramer mix+%/100)). Table 14 summarizes the estimations under the staining conditions A-G. DAS treatment was performed at 37° C. for 30 minutes.

[2] = tested on: αCol6A3 T cells spiked in PBMC (1:1×10^5); assay: Col6A3-002 2D tetramer staining of αCol6A3 T cells spiked in PBMC, condition #1; type: cell-based; details: staining at 37° C.
Experimental: Condition #1: with DAS treatment+irrelevant peptide tetramer mix, staining at 37° C.
Sample #2: αCol6A3 T cells spiked in PBMC (1:1×10^5), about 2×10^6 CD45+cells acquired

[3] = tested on: Col6A3 REP1 cells (αCol6A3 T cells); assay: Col6A3-002 2D tetramer staining of Col6A3 REP1 cells with dasatinib treatment, flow cytometry; type: cell-based; details: Col6A3 PEP1 cells
[4] = PBMC, DAS treatment, staining at RT, with irrelevant peptide APC tetramer mix
[5] = DAS treatment, staining at 37° C., with irrelevant peptide APC tetramer mix, listed as DAS
[6] = DAS treatment, staining at RT, with irrelevant peptide APC tetramer mix
[7] = DAS treatment + irrelevant peptide tetramer mix

## Cc1nc(Nc2ncc(C(=O)Nc3c(C)cccc3Cl)s2)cc(N2CCN(CCO)CC2)n1 [Dasatinib, dasatinib]
PBMC; PBMC sample S1, in 1.29×10^7 lymphocytes acquired, DAS
  2D PE/BV421 Tet-positive and irrelevant peptide APC tetramer-negative events: 128 events
PBMC; PBMC sample S2, in 6.09×10^6 lymphocytes acquired, DAS
  2D PE/BV421 Tet-positive and irrelevant peptide APC tetramer-negative events: 68 events
PBMC; PBMC sample S3, in 9.71×10^5 lymphocytes acquired, DAS
  2D PE/BV421 Tet-positive and irrelevant peptide APC tetramer-negative events: 23 events
PBMC; PBMC sample S4, in 5.35×10^6 lymphocytes acquired, DAS
  2D PE/BV421 Tet-positive and irrelevant peptide APC tetramer-negative events: 80 events
PBMC; PBMC, 50 nM dasatinib treatment, Tet staining at 37° C., with irrelevant peptide APC tetramer mix
  2D Tet (PE+BV421) double-positive cells (Q2) of CD45+ cells: 0.027%
PBMC; PBMC, DAS 50 nM at 37° C., all staining, spins, washes at 4° C., with irrelevant mix, FIG. 37A
  2D Tet (PE+BV421) double-positive cells (Q2) of CD45+ cells: 4.23E-3%
PBMC; PBMC, DAS 50 nM, all staining, spins, washes at 4° C., FIG. 37A
  2D Tet (PE+BV421)-positive and irrelevant peptide-negative cells in Q2 cells: 46.5%
PBMC; PBMC, DAS treatment, staining at 37° C., absence of irrelevant peptide APC tetramer mix
  2D Tet (PE+BV421) double-positive cells (Q2) of CD45+ cells: 0.19%
PBMC; PBMC, DAS treatment, staining at 37° C., with irrelevant peptide APC tetramer mix
  APC-negative/BV421-positive cells (true Col6A3-specific T cells, Q1) in Q2 cells: 0.93%
PBMC; PBMC, DAS treatment, staining at 37° C., with irrelevant peptide APC tetramer mix, listed as DAS
  irrelevant peptide positive T cells in the BV421/PE double-positive (Q2) cells: 98.2% and 99.1%
PBMC; PBMC, DAS treatment, staining at RT, absence of irrelevant peptide APC tetramer mix
  2D Tet (PE+BV421) double-positive cells (Q2) of CD45+ cells: 7.17E-3%
PBMC; [4]
  2D Tet (PE+BV421) double-positive cells (Q2) of CD45+ cells: 8.04E-3%
  APC-negative/BV421-positive cells (true Col6A3-specific T cells, Q1) in Q2 cells: about 4.76%
  irrelevant peptide positive T cells in the BV421/PE double-positive (Q2) cells: 95.2%
PBMC; PBMC, dasatinib treatment, staining at 37° C., with irrelevant APC tetramers
  final frequency: one Col Tet+ T cell in N CD45+ cells: 4×10^5 CD45+ cells
PBMC; PBMC, in 4.78×10^6 lymphocytes acquired, DAS
  2D PE/BV421 Tet-positive and irrelevant peptide APC tetramer-negative events: 94 events
PBMC; in ¼ of DAS-treated samples
  increase of MFI: about 2 ×
PBMC; only PBMC, in 2×10^6 CD45+ cells acquired, DAS, staining at 37° C.
  2D PE/BV421 Tet-positive and irrelevant peptide APC tetramer-negative cells detected: 5 cells
[1]; [5]
  irrelevant peptide positive T cells in Q2 cells: 6.38% and 3.18%
  staining index (SI): 19.0 and 15.6
[1]; [6]
  2D Tet (PE+BV421) double-positive cells (Q2) of CD45+ cells: 55.8%
  APC-negative/BV421-positive cells (true Col6A3 REP1 cells, Q1) in Q2 cells: about 78.4%
  irrelevant peptide positive T cells in Q2 cells: 21.6%
  staining index (SI): 24.0
[1]; condition A: Dasatinib +, Tet stain 37, bench RT, centrifuge RT
  Estimation per 1e6 based on flow % (peptide-specific T cells per 1×10^6 CD45+ cells): 2.24 × 10^5 per 1e6
[1]; condition C: DAS, Tet staining at 37° C.
  background staining of BV421/APC double-positive irrelevant peptide T cells (Q2): 2.01%
[1]; condition C: Dasatinib +, Tet stain 37, bench 4, centrifuge 4
  Estimation per 1e6 based on flow % (peptide-specific T cells per 1×10^6 CD45+ cells): 5.61 × 10^5 per 1e6
[1]; condition D: DAS, Tet staining
  background staining of BV421/APC double-positive irrelevant peptide T cells (Q2): 13.7%
[1]; condition D: Dasatinib +, Tet stain 4, bench 4, centrifuge 4
  Estimation per 1e6 based on flow % (peptide-specific T cells per 1×10^6 CD45+ cells): 6.75 × 10^5 per 1e6
[1]; condition F: DAS, Tet staining at RT
  background staining of BV421/APC double-positive irrelevant peptide T cells (Q2): 3.07%
[1]; condition F: Dasatinib +, Tet stain RT, bench 4, centrifuge 4
  Estimation per 1e6 based on flow % (peptide-specific T cells per 1×10^6 CD45+ cells): 6.75 × 10^5 per 1e6
[2]; [7]
  2D PE/BV421 Tet double-positive cells (Q2) of CD45+ cells: 0.035%
  APC-negative/BV421-positive cells (true αCol6A3 T cells, Q1) in Q2 cells: about 2.58%
  BV421/APC double-positive irrelevant peptide T cells in Q2 cells: 97.4%
  one αCol6A3 T cell in N CD45+ cells: 1×10^5 CD45+ cells
[2]; in 2×10^6 CD45+ cells acquired, DAS
  2D PE/BV421 Tet-positive and irrelevant peptide APC tetramer-negative events: 18 events
[3]; DAS treatment, 4° C., FIG. 39
  2D Tet (PE+BV421)-positive and irrelevant peptide-negative cells in Q2 cells: 95.8%
[3]; DAS treatment, all staining, spins, washes at 4° C., FIG. 39
  2D Tet (PE+BV421) double-positive cells (Q2) of CD45+ cells: 68.9%
[3]; in 206055 lymphocytes acquired, DAS, 4° C.
  2D PE/BV421 Tet-positive and irrelevant peptide APC tetramer-negative events: 135941 events
